The values below come from US20260191827A1, “COMPOUNDS FOR USE IN THE TREATMENT OF DISEASES AND CONDITIONS ASSOCIATED WITH NEURODEGENERATIVE DYSFUNCTION” (OnTrack Therapeutics Limited, priority 2022, published 2026).

Data set [1] relates to scopolamine-induced cognitive deficit in mice. The data set is described as follows: Scopolamine-induced cognitive deficit, T-maze spontaneous alternation.
Description: 60 male CD-1 mice (Janvier; Le Genest St Isle—France) were used for the study, with 10 animals per group.
Animals in the API groups were pre-treated (p.o.) once a day for 30 days, the last treatment was given 1 h before the T-maze test.
Compound of Formula I or its vehicle was administered at 5 ml/kg using p.o. route. The vehicle was 5% DMSO/0.5% methylcellulose in water. Fresh compound solution was prepared daily as following: the required amount of compound will be dissolved in 100% DMSO and then the required amount of 0.5% methylcellulose in water was added.
On the day of the T-maze, the last treatment was given 1 h before the task.
Donepezil (donepezil hydrochloride) was prepared in saline at a concentration of 0.03 mg/ml and was given p.o. at a dosage volume of 10 ml/kg 1 h before the T-maze trial start.
Scopolamine was prepared in saline (vehicle) at a concentration of 0.089 mg/ml (free base) and was given i.p. at a dosage volume of 10 ml/kg 30 min before the T-maze trial start.
The T-maze consists of 2 choice arms and 1 start arm mounted to a square centre. Sliding doors are provided to close specific arms during the force choice alternation task.
The experimental protocol consists of one single session, which starts with 1 “forced-choice” trial, followed by 14 “free-choice” trials. In the first “forced-choice” trial, the animal was confined for 5 s in the start arm and then was released while either the left or right goal arm was blocked by closing the sliding door. The animal then negotiated the maze, and eventually entered the open goal arm, and returned to the start position.
Immediately after the return of the animal to the start position, the left or right goal door was opened, and the animal was allowed to choose freely between the left and right goal arm (“free choice trials).
The animal was considered to have entered an arm when it placed its four paws in the arm.
A session was terminated, and the animal was removed from the maze as soon as 14 free-choice trials had been performed or 10 min have elapsed, whatever event occurred first.
The percentage of spontaneous alternations were calculated as number of spontaneous alternations divided by 14 possible free choice.
Statistical analysis was assessed using Anova followed by Fischer's Protected Least Significant Difference for pairwise comparison. p level <0.05 was deemed significant.
For data set [2], the system named is scopolamine-induced impairment in cognition. To be noted: normal healthy humans, donepezil 10 mg; cited from earlier work.
Data set [3] deals with sub-chronic PCP-induced deficits in recognition memory in rats. The experiment in a line: Sub-chronic PCP-induced deficit in novel object recognition (NOR) paradigm. The following applies: for Acquisition total exploration time / Retention total exploration time: mean ± s.e.m.
The test system of data set [4] is animal model of Alzheimer's disease. To be noted: low dose; Chen et al., 2021; cited from earlier work.
Another data set deals with 5XFAD mice. To be noted: repeated administration, WO2020/033604; cited from earlier work.
Data set [5] concerns the target tropomyosin receptor kinase B (TrkB) (Homo sapiens, UniProt Q16620). The following applies: known from background; cited from earlier work.
Setting [6] is: 20-day phase (day 20), scPCP rats, acute risperidone 0.1 mg/kg i.p. 60 min before test.
[7] abbreviates: acute phase (day 1), scPCP rats, risperidone 0.1 mg/kg i.p. 60 min before test.
The mark [8] stands for this setting: 20-day once-daily treatment, scPCP rats, 10 mg/kg p.o.
The mark [9] stands for this setting: 20-day once-daily treatment, scPCP rats, 30 mg/kg p.o.
[10] abbreviates: acute treatment, scPCP rats, 10 mg/kg p.o. 120 min before test.
Setting [11] is: acute treatment, scPCP rats, 30 mg/kg p.o. 120 min before test.

Structures can show the parent of a compound that is named as a salt.

Sequence of tropomyosin receptor kinase B (TrkB) (Q16620 32-822, species assumed): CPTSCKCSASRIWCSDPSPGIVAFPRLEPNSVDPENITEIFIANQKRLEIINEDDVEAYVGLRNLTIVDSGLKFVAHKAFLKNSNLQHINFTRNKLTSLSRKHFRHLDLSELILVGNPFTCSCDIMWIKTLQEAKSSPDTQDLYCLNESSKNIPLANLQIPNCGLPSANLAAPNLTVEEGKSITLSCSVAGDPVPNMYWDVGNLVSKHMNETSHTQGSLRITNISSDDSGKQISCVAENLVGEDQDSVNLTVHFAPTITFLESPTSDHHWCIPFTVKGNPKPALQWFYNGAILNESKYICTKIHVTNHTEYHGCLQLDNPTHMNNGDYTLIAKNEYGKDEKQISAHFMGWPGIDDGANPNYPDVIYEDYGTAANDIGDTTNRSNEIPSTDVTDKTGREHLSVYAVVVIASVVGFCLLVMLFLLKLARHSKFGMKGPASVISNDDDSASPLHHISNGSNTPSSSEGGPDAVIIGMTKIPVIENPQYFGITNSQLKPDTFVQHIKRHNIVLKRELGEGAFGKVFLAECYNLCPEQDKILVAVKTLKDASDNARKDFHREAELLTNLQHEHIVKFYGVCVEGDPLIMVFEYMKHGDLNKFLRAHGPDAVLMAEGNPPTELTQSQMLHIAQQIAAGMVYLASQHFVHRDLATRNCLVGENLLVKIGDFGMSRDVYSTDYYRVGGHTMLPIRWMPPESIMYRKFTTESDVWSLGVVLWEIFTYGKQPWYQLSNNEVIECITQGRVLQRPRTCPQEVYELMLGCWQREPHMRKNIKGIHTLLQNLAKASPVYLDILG

Consider `COc1cc2c(cc1OC)C(=O)C(CC1CCN(Cc3ccccc3)CC1)C2` (stereo not drawn) [Donepezil, donepezil hydrochloride, reference compound], for which the “Spontaneous alternation (%)” value in data set [1] (Scopolamine 0.89 mg/kg i.p., Donepezil 0.3 mg/kg p.o. 1 h before T-maze, hydrochloride) worked out at 65.0%; in data set [1] (Scopolamine 0.89 mg/kg i.p., Donepezil 0.3 mg/kg p.o. 1 h before T-maze, listed as donepezil, hydrochloride), 65%. Moreover, the “effect on scopolamine-induced decline in cognitive function” value in data set [1] (donepezil 0.3 mg/kg, statistically significant) is given as “ameliorated”. Besides, the “scopolamine-induced impairment in cognition (power of attention, continuity of attention, quality of working memory, speed of memory)” value in data set [2] is reported as “significantly attenuated”.

As for `Cc1nc2n(c(=O)c1CCN1CCC(c3noc4cc(F)ccc34)CC1)CCCC2` [Risperidone, risperidone, reference compound], the “Acquisition total exploration time” value is 25.5 ± 3.4 s in data set [3] (setting [6]) and 22.81 ± 4.03 s in data set [3] (setting [7]). For the same compound, the figures for the “Retention total exploration time” value in data set [3] (setting [6]) and in data set [3] (setting [7]) were 17.8 ± 1.1 s and 23.10 ± 2.92 s, respectively. In data set [3] (acute phase, risperidone 0.1 mg/kg i.p., versus scPCP without treatment and test compound (FIG. 4)), the “discrimination index (DI)” value is listed as “higher”. The “rescue of deficits induced by scPCP in NOR” value in data set [3] (risperidone dosed acutely) was “able to rescue the deficits induced by scPCP”.

In the case of `N#Cc1ccc(-c2cc(=O)c3ccc4[nH]c(C(F)(F)F)nc4c3o2)cc1` [compound of Formula I, 4-(6-oxo-2-(trifluoromethyl)-3,6-dihydrochromeno [7,8-d]imidazol-8-yl)benzonitrile], the “dose effect in Alzheimer's disease animal model” value in data set [4] is listed as “saturation effect”. In addition, in the data set on 5XFAD mice, the synaptic loss result is reported as “able to prevent synaptic loss”. Further, the “spontaneous alternations in comparison to vehicle in scopolamine-treated mice” value in data set [1] (30 days treatment prior to scopolamine, statistically significant) was “increased percentage of spontaneous alternations”. The “Spontaneous alternation (%)” value in data set [1] (Saline (healthy mice), Compound of Formula I high dose 10 mg/kg p.o. once a day for 30 days, 10 mg/kg) stood at 64%; in data set [1] (Saline (healthy mice), Compound of Formula I high dose 10 mg/kg p.o. once a day for 30 days, listed as Compound of Formula I, 10 mg/kg), 64.3%; in data set [1] (Scopolamine, Compound of Formula I high dose 10 mg/kg p.o. once a day for 30 days, 10 mg/kg), 56%; in data set [1] (Scopolamine, Compound of Formula I high dose 10 mg/kg p.o. once a day for 30 days, listed as Compound of Formula I, 10 mg/kg), 55.7%; in data set [1] (Scopolamine, Compound of Formula I low dose 5 mg/kg p.o. once a day for 30 days, 5 mg/kg), 56%; in data set [1] (Scopolamine, Compound of Formula I low dose 5 mg/kg p.o. once a day for 30 days, listed as Compound of Formula I, 5 mg/kg), 55.7%. Further, in data set [1] (healthy mice, 10 mg/kg, 30 days), the “effect on cognition in healthy animals” value is “did not impair cognition in healthy animals”. The “Acquisition total exploration time” value came to 24.6 ± 3.4 s in data set [3] (setting [8]), 26.1 ± 3.1 s in data set [3] (setting [9]), 21.75 ± 2.46 s in data set [3] (setting [10]) and 25.49 ± 3.04 s in data set [3] (setting [11]). Besides, the “Retention total exploration time” value in data set [3] (setting [8]) was determined as 19.0 ± 1.4 s; in data set [3] (setting [9]) it was 20.8 ± 1.2 s; in data set [3] (setting [10]), 22.55 ± 1.60 s; in data set [3] (setting [11]), 26.18 ± 2.11 s. Besides, in data set [3] (20-day treatment, 30 mg/kg, compared to animals without treatment, P<0.015 (FIG. 8)), the “discrimination index (DI)” value was “statistically significant increase”. Further, the “amount of time spent exploring the familiar and novel object in the retention trial” value in data set [3] (20-day treatment, scPCP rats, 10 & 30 mg/kg p.o., P<0.01 (FIG. 7)) is recorded as “dose dependent statistically significant effect”. In data set [3] (acute treatment, scPCP rats, 10 & 30 mg/kg p.o. (FIG. 3)), the “amount of time exploring the novel or familiar object in the retention trial” value is “not shown to have a difference”. Moreover, the “rescue of deficits induced by scPCP in NOR” value in data set [3] (dosing for a 20-day period) is on record as “able to rescue the scPCP in a dose dependent manner”.

As for `O=c1cc(-c2ccccc2)oc2c(O)c(O)ccc12` [tropoflavin, 7,8-dihydroxyflavone], the TrkB activity result in data set [5] was “potent and selective agonist”.
